Tests used:
[1] = skeletal imaging prior to 1971; cited from earlier work
[2] = monoenergetic; cited from earlier work
[3] = compared with stannous chloride
[4] = Subramanian and McAfee, Radiology 1971; cited from earlier work
[5] = long chain polyphosphate material; cited from earlier work

For `[18FH]` [Fluorine-18, fluorine-18], the “scan performance (in words)” value [1] is listed as “good agent”.

For `[85Sr]` [Strontium-85, strontium-85], the “scan performance (in words)” value [1] is given as “poor quality scans”.

In the case of `[87Sr]` [Strontium-87m, strontium-87m], the “scan performance (in words)” value [1] is listed as “high blood background”.

For `[99Tc]` [technetium-99m], the gamma emission energy [2] is given as 140 KeV.

With Stannous fluoride the “stability to hydrolysis in aqueous solution (in words)” value [3] was “more stable to hydrolysis in aqueous solution than stannous chloride”.

In the case of tripolyphosphate, the “skeletal uptake / localization (in words)” value [4] is listed as “good skeletal uptake of activity” and the “stability with respect to hydrolysis (in words)” value [5] is listed as “instability of the long chain polyphosphate material with respect to hydrolysis”.

Source: patent publication US3984531A, “Technetium-99m-tin-monofluorophosphate complex” (The Radiochemical Centre Limited, priority 1973, dated 1976)
